Assay results: PMC5927774, “Isoxazol-5(2H)-one: a new scaffold for potent human neutrophil elastase (HNE) inhibitors” (Journal of Enzyme Inhibition and Medicinal Chemistry, 2017)

Experiments:
[1] = Spontaneous hydrolysis (chemical stability) in aqueous buffer; assay type: physicochemical; settings: 25 °C, 0.05 M phosphate buffer, pH 7.3; read-out: t1/2 (h) Spontaneous hydrolysis (converted)
Protocol: (§1) Spontaneous hydrolysis of selected derivatives was evaluated at 25 °C in 0.05 M phosphate buffer, pH 7.3. Kinetics of hydrolysis were monitored by measuring changes in absorbance spectra over time using a SpectraMax Plus microplate spectrophotometer (Molecular Devices, Sunnyvale, CA). Absorbance (At) at the characteristic absorption maxima of each compound was measured at the indicated times until no further absorbance decreases occurred (A∞)[30]. Using these measurements, we created semilogarithmic plots of log(At – A∞) versus time, and k′ values were determined from the slopes of these plots. Half-conversion times were calculated using t1/2=0.693/k′, as described previously.

HNE [2] = biological target: T1, HNE (Homo sapiens, UniProt P08246); assay: Compound hydrolysis in the presence of HNE; assay type: biochemical; settings: for half-life: human, phosphate buffer supplemented with HNE (400 mU/ml), pH 7.3, 400 mU/ml HNE, read-out: t1/2 (h) In the presence HNE (converted)
T1 construct: purchased Calbiochem, La Jolla, CA
T1 sequence (P08246 30-267): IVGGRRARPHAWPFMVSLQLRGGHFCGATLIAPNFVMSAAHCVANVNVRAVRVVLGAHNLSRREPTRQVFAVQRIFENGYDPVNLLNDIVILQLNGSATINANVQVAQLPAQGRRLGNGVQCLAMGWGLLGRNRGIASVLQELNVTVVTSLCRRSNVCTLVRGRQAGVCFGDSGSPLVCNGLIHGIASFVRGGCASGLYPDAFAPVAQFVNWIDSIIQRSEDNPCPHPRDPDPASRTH
Protocol: as §1
In the presence of 400 mU/ml HNE, the hydrolysis was 2.2–4.8-fold higher than for spontaneous hydrolysis (i.e. without HNE) (Table 3).
Figure 5. Analysis of compound 2i spontaneous hydrolysis. Compound 2i (80 μM) was incubated in 0.05 M phosphate buffer ([…], 25 °C) supplemented with […] HNE, as indicated. Spontaneous hydrolysis was monitored by measuring changes in absorbance at 275 nm (absorption maximum of compound 2i) over time. The data are presented as the mean ± SD of triplicate samples from one experiment, which is representative of two independent experiments.

[3] = biological target: T2, HNE (human neutrophil elastase) (Homo sapiens, UniProt P08246); assay: HNE inhibition assay (fluorogenic substrate); assay type: biochemical; settings: for IC50: Table 1, mean ± SD of three independent experiments, NA = no inhibitory activity at the highest concentration tested (50 μM)
T2 construct: purchased Calbiochem, La Jolla, CA
T2 sequence (P08246 30-267): T1 sequence (P08246 30-267)
Protocol: HNE inhibition assay. Compounds were dissolved in 100% DMSO at 5 mM stock concentrations. The final concentration of DMSO in the reactions was 1%, and this level of DMSO had no effect on enzyme activity. The HNE inhibition assay was performed in black flat-bottom 96-well microtiter plates. Briefly, a buffer solution containing 200 mM Tris–HCl, pH 7.5, 0.01% bovine serum albumin, 0.05% Tween-20, and 20 mU/ml of HNE (Calbiochem, La Jolla, CA) was added to wells containing different concentrations of each compound. The reaction was initiated by addition of 25 μM elastase substrate (N-methylsuccinyl-Ala-Ala-Pro-Val-7-amino-4-methylcoumarin, Calbiochem) in a final reaction volume of 100 μL/well. Kinetic measurements were obtained every 30 s for 10 min at 25 °C using a Fluoroskan Ascent FL fluorescence microplate reader (Thermo Electron, Waltham, MA) with excitation and emission wavelengths at 355 and 460 nm, respectively. For all compounds tested, the concentration of inhibitor that caused 50% inhibition of the enzymatic reaction (IC50) was calculated by plotting % inhibition versus logarithm of inhibitor concentration (at least six points). The data are presented as the mean values of at least three independent experiments with relative standard deviations of <15%.

HNE [4] = biological target: T1, HNE; assay: Reversibility of the HNE-inhibitor complex over time (kinetic curves); assay type: biochemical; settings: compound at 5 μM
Protocol: (§2) However, inhibition by compound 2s was reversed after 10 min. […] To better understand the mechanism of action of this isoxazolone HNE inhibitor, we performed additional kinetic experiments.
Figure 6. Evaluation of HNE inhibition by selected isoxazolone derivatives. HNE was incubated with the indicated compounds at 5 μM concentrations, and kinetic curves monitoring substrate cleavage catalysed by HNE are shown. Representative curves are from three independent experiments.

HNE [5] = biological target: T1, HNE; assay: Lineweaver-Burk analysis of HNE inhibition; assay type: biochemical; settings: double-reciprocal Lineweaver-Burk plot
Protocol: as §2
Figure 7. Kinetics of HNE inhibition by compound 2o. Representative double-reciprocal Lineweaver–Burk plot from three independent experiments.

Row | Compound | half-life [1] | half-life (HNE [2]) | IC50 [3] | other results
1 | Cc1cccc(C(=O)n2oc(=O)cc2C(C)C)c1 [Compound 2n, 3-Isopropyl-2-(3-methylbenzoyl)isoxazol-5(2H)-one] | 6.2 h | 2.6 h | 42 ± 11 nM | time during which HNE inhibition was maximal (HNE [4]): 30 min
2 | CC(C)c1cc(=O)on1C(=O)c1cccc(C(F)(F)F)c1 [Compound 2r, 3-Isopropyl-2-(3-(trifluoromethyl)benzoyl)isoxazol-5(2H)-one] |  |  | 1200 ± 220 nM | 
3 | CC(C)c1cc(=O)on1C(=O)c1cccc(C#N)c1 [Compound 2p, 3-(3-Isopropyl-5-oxo-2,5-dihydroisoxazole-2-carbonyl)benzonitrile] |  |  | 6500 ± 1700 nM | 
4 | CCc1cc(=O)on1C(=O)c1cccc(C)c1 [Compound 2j, 3-Ethyl-2-(3-methylbenzoyl)isoxazol-5(2H)-one] | 5.3 h | 2.1 h | 43 ± 11 nM | melting point: 81 to 84 °C; fold higher inhibitory activity with respect to the corresponding 4-methyl derivative ([3]; 2i vs 2e, 2j vs 2f): 42 fold; time during which HNE inhibition was maximal (HNE [4]): 30 min
5 | Cc1ccc(C(=O)n2oc(=O)cc2C(C)C)cc1 [Compound 2o, 3-Isopropyl-2-(4-methylbenzoyl)isoxazol-5(2H)-one] | 8.9 h | 3.4 h | 20 ± 7 nM | melting point: 77 to 79 °C; mechanism of HNE inhibition (in words) (HNE [5]): competitive HNE inhibitor; time after which HNE inhibition was reversed (HNE [4]): 2 h
6 | CCC(=O)n1oc(=O)cc1C(C)C [Compound 2k, 3-Isopropyl-2-propionylisoxazol-5(2H)-one] |  |  | 1100 ± 140 nM | melting point: 92 to 95 °C
7 | Cc1cccc(C(=O)n2oc(=S)cc2C(C)C)c1 [Compound 3b, (3-Isopropyl-5-thioxoisoxazol-2(5H)-yl)-(m-tolyl)methanone] |  |  |  | HNE inhibitory activity (in words) [3]: inactivity
8 | CC(C)c1cc(=O)on1C(=O)c1ccc(C#N)cc1 [Compound 2q, 4-(3-Isopropyl-5-oxo-2,5-dihydroisoxazole-2-carbonyl)benzonitrile] |  |  | 18200 ± 2500 nM | melting point: 113 to 115 °C
9 | CC(C)c1cc(=O)on1C(=O)c1ccc(C(F)(F)F)cc1 [Compound 2s, 3-Isopropyl-2-(4-(trifluoromethyl)benzoyl)isoxazol-5(2H)-one] | 3.1 h | 0.9 h | 34 ± 12 nM | time after which HNE inhibition was reversed (HNE [4]): 0.167 h
10 | Cc1cccc(Cn2oc(=O)c(C)c2C)c1 [Compound 4a, 3,4-Dimethyl-2-(3-methylbenzyl)isoxazol-5(2H)-one] |  |  |  | melting point: 80 to 83 °C

More lines, main results first:

Row | half-life [1] | half-life (HNE [2]) | IC50 [3] | Compound | other results
11 |  |  | 2100 ± 310 nM | CC(C)c1cc(=S)on1C(=O)C1CC1 [Compound 3a, Cyclopropyl-(3-isopropyl-5-thioxoisoxazol-2(5H)-yl)methanone] | 
12 | 7.7 h | 3.5 h | 94 ± 23 nM | CCc1c(C)n(C(=O)c2cccc(C)c2)oc1=O [Compound 2d, 4-Ethyl-3-methyl-2-(3-methylbenzoyl)isoxazol-5(2H)-one] | time during which HNE inhibition was maximal (HNE [4]): 30 min
13 | 19.3 h | 4 h | 96 ± 22 nM | CCc1cc(=O)on1C(=O)C1CC1 [Compound 2i, 2-(Cyclopropanecarbonyl)-3-ethylisoxazol-5(2H)-one] | hydrolysis with increasing HNE concentration (in words) (HNE [2]; 80 μM compound, 0.05 M phosphate buffer pH 7.5, 25 °C, 0, 50, 200, 400 μg/ml HNE, absorbance at 275 nm): dose-dependent hydrolysis; time during which HNE inhibition was maximal (HNE [4]): 30 min
14 |  |  | 560 ± 150 nM | CC(C)c1cc(=O)on1C(=O)C1CCCC1 [Compound 2m, 2-(Cyclopentanecarbonyl)-3-isopropylisoxazol-5(2H)-one] | 
15 |  |  | 130 ± 25 nM | CCc1c(C)n(C(=O)C2CC2)oc1=O [Compound 2c, 2-(Cyclopropanecarbonyl)-4-ethyl-3-methylisoxazol-5(2H)-one] | 
16 |  |  | 10900 ± 1200 nM | Cc1cccc(C(=O)n2oc(=O)c(C)c2C)c1 [Compound 2b, 3,4-Dimethyl-2-(3-methylbenzoyl)isoxazol-5(2H)-one] | 
17 |  |  | 2200 ± 280 nM | CCc1c(C)c(=O)on1C(=O)C1CC1 [Compound 2e, 2-(Cyclopropanecarbonyl)-3-ethyl-4-methylisoxazol-5(2H)-one] | 
18 |  |  | 120 ± 23 nM | Cc1c(C)n(C(=O)C2CC2)oc1=O [Compound 2a, 2-(Cyclopropanecarbonyl)-3,4-dimethylisoxazol-5(2H)-one] | 
19 | 19.3 h | 4.3 h | 34 ± 9 nM | CC(C)c1cc(=O)on1C(=O)C1CC1 [Compound 2l, 2-(Cyclopropanecarbonyl)-3-isopropylisoxazol-5(2H)-one] | time during which HNE inhibition was maximal (HNE [4]): 30 min
20 |  |  | 39700 ± 5100 nM | CCOC(=O)c1c(C)c(=O)on1C(=O)c1cccc(C)c1 [Compound 2h, Ethyl 4-methyl-2-(3-methylbenzoyl)-5-oxo-2,5-dihydroisoxazole-3-carboxylate] | 
21 |  |  | 440 ± 140 nM | CCOC(=O)c1c(C)c(=O)on1C(=O)C1CC1 [Compound 2g, Ethyl 2-(cyclopropanecarbonyl)-4-methyl-5-oxo-2,5-dihydroisoxazole-3-carboxylate] | 
22 |  |  | 1800 ± 320 nM | CCc1c(C)c(=O)on1C(=O)c1cccc(C)c1 [Compound 2f, 3-Ethyl-4-methyl-2-(3-methylbenzoyl)isoxazol-5(2H)-one] | 
